Assay results from the supplement of paper PMC11208160.

assay: recombinant UMI read abundance after kanamycin selection (control-corrected) (log10(CPM+1)); higher = more efficient recombination; extreme values may be limits of the assay; sequences stand for … in AGTGCAGAGAAAATCGGCCAGTTTTCTCTGCCTGCAGTCCGCATGCCGTGGGACCCCTTGGGTTCTAACCTGTTGCCTAGATTTATGCAGCGGACTGCCTTTCTCCCAAAGTGATAAACCGG…AGGTTGGTTTCACT; site = the 11-nt donor
In short: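 Two replicates each of selected and unselected plating were used in this pooled Escherichia coli screen of donor and donor-binding-loop pairs for the IS621 bridge recombinase. Selection was with IPTG (0.07 mM) and kanamycin. Counts of recombinant UMIs, amplified across the donor–target junction, were converted to CPM, averaged, scaled by control-derived factors and reported as log10(CPM+1).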
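Note: IS621 bridge recombinase in Escherichia coli cells against a fixed T5 target plasmid.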

Sequence | recombinant UMI read abundance (log10)
TGGAATCCATGGACCGGTTTTCCCGGTAATCCGTATTTGTG (site CGGAATCCTAA) | 0.00353
TGGAATCCATGGACCGGTTTTCCCGGTAATCCGTATTTGTG (site TGGAATCCTCA) | 0.604
TGGAATGCATGGACCGGTTTTCCCGGTAATCCGTATTTGTT (site CGGAATCCTAA) | 0.00325
TGGAATGCATGGACCGGTTTTCCCGGTAATCCGTATTTGTT (site TGGAATGCTAA) | 1.71
TGGACACCATGGACCGGTTTTCCCGGTAATCCGTATTTGAC (site TGAACACCTGT) | 0
TGGACACCATGGACCGGTTTTCCCGGTAATCCGTATTTGAC (site TGCACACCTGT) | 0
TGGACACCATGGACCGGTTTTCCCGGTAATCCGTATTTGAC (site TGGACACCTGT) | 0
TGGACACCATGGACCGGTTTTCCCGGTAATCCGTATTTGAC (site TGTACACCTGT) | 0
TGGAGTGCATGGACCGGTTTTCCCGGTAATCCGTATTTGAC (site TGGAGTGCTGT) | 2.21
TGGATACCATGGACCGGTTTTCCCGGTAATCCGTATTTGTT (site TGGATACCTAA) | 0
TGGATGACATGGACCGGTTTTCCCGGTAATCCGTATTTGCA (site AGGAAGACTTG) | 0.54
TGGATGACATGGACCGGTTTTCCCGGTAATCCGTATTTGCA (site TGGATGACTTG) | 2.44
TGGATGTCATGGACCGGTTTTCCCGGTAATCCGTATTTGAA (site TGGATGTCTTT) | 2.11
TGGCAAGCATGGACCGGTTTTCCCGGTAATCCGTATTTGTC (site TGGCAAGCTGA) | 0
TGGCCCGCATGGACCGGTTTTCCCGGTAATCCGTATTTGGC (site TGGCCAGCTGC) | 0
TGGCCCGCATGGACCGGTTTTCCCGGTAATCCGTATTTGGC (site TGGCCCGCTGC) | 0.649
TGGCCCGCATGGACCGGTTTTCCCGGTAATCCGTATTTGGC (site TGGCCGGCTGC) | 0
TGGCCCGCATGGACCGGTTTTCCCGGTAATCCGTATTTGGC (site TGGCCTGCTGC) | 0
TGGCCGACATGGACCGGTTTTCCCGGTAATCCGTATTTGGG (site TGGCCGACTCC) | 0
TGGCCGCCATGGACCGGTTTTCCCGGTAATCCGTATTTGGC (site TGGCCGACTGC) | 0.0204
TGGCCGCCATGGACCGGTTTTCCCGGTAATCCGTATTTGGC (site TGGCCGCCTGC) | 0
TGGCCGCCATGGACCGGTTTTCCCGGTAATCCGTATTTGGC (site TGGCCGGCTGC) | 0
TGGCCGCCATGGACCGGTTTTCCCGGTAATCCGTATTTGGC (site TGGCCGTCTGC) | 0
TGGCCGGCATGGACCGGTTTTCCCGGTAATCCGTATTTGGC (site AGGCCGGCTGC) | 0
TGGCCGGCATGGACCGGTTTTCCCGGTAATCCGTATTTGGC (site CGGCCGGCTGC) | 0

Sequence | recombinant UMI read abundance (log10)
TGGCCGGCATGGACCGGTTTTCCCGGTAATCCGTATTTGGC (site GGGCCGGCTGC) | 0
TGGCCGGCATGGACCGGTTTTCCCGGTAATCCGTATTTGGC (site TAGCCGGCTGC) | 0
TGGCCGGCATGGACCGGTTTTCCCGGTAATCCGTATTTGGC (site TCGCCGGCTGC) | 0
TGGCCGGCATGGACCGGTTTTCCCGGTAATCCGTATTTGGC (site TGACCGGCTGC) | 0
TGGCCGGCATGGACCGGTTTTCCCGGTAATCCGTATTTGGC (site TGCCCGGCTGC) | 0
TGGCCGGCATGGACCGGTTTTCCCGGTAATCCGTATTTGGC (site TGGACGGCTGC) | 0
TGGCCGGCATGGACCGGTTTTCCCGGTAATCCGTATTTGGC (site TGGCAGGCTGC) | 0
TGGCCGGCATGGACCGGTTTTCCCGGTAATCCGTATTTGGC (site TGGCCAGCTGC) | 0
TGGCCGGCATGGACCGGTTTTCCCGGTAATCCGTATTTGGC (site TGGCCCGCTGC) | 0
TGGCCGGCATGGACCGGTTTTCCCGGTAATCCGTATTTGGC (site TGGCCGACTGC) | 0
TGGCCGGCATGGACCGGTTTTCCCGGTAATCCGTATTTGGC (site TGGCCGCCTGC) | 0
TGGCCGGCATGGACCGGTTTTCCCGGTAATCCGTATTTGGC (site TGGCCGGCTAC) | 0.0414
TGGCCGGCATGGACCGGTTTTCCCGGTAATCCGTATTTGGC (site TGGCCGGCTCC) | 0.0175
TGGCCGGCATGGACCGGTTTTCCCGGTAATCCGTATTTGGC (site TGGCCGGCTGA) | 0
TGGCCGGCATGGACCGGTTTTCCCGGTAATCCGTATTTGGC (site TGGCCGGCTGC) | 0.862
TGGCCGGCATGGACCGGTTTTCCCGGTAATCCGTATTTGGC (site TGGCCGGCTGG) | 0
TGGCCGGCATGGACCGGTTTTCCCGGTAATCCGTATTTGGC (site TGGCCGGCTGT) | 0
TGGCCGGCATGGACCGGTTTTCCCGGTAATCCGTATTTGGC (site TGGCCGGCTTC) | 0.00718
TGGCCGGCATGGACCGGTTTTCCCGGTAATCCGTATTTGGC (site TGGCCGTCTGC) | 0
TGGCCGGCATGGACCGGTTTTCCCGGTAATCCGTATTTGGC (site TGGCCTGCTGC) | 0
TGGCCGGCATGGACCGGTTTTCCCGGTAATCCGTATTTGGC (site TGGCGGGCTGC) | 0
TGGCCGGCATGGACCGGTTTTCCCGGTAATCCGTATTTGGC (site TGGCTGGCTGC) | 0
TGGCCGGCATGGACCGGTTTTCCCGGTAATCCGTATTTGGC (site TGGGCGGCTGC) | 0
TGGCCGGCATGGACCGGTTTTCCCGGTAATCCGTATTTGGC (site TGGTCGGCTGC) | 0.00844
TGGCCGGCATGGACCGGTTTTCCCGGTAATCCGTATTTGGC (site TGTCCGGCTGC) | 0

Sequence | recombinant UMI read abundance (log10)
TGGCCGGCATGGACCGGTTTTCCCGGTAATCCGTATTTGGC (site TTGCCGGCTGC) | 0.00854
TGGCCGTCATGGACCGGTTTTCCCGGTAATCCGTATTTGAG (site TGGCCGTCTCT) | 0.297
TGGCCTGCATGGACCGGTTTTCCCGGTAATCCGTATTTGGC (site TGGCCAGCTGC) | 0
TGGCCTGCATGGACCGGTTTTCCCGGTAATCCGTATTTGGC (site TGGCCCGCTGC) | 0
TGGCCTGCATGGACCGGTTTTCCCGGTAATCCGTATTTGGC (site TGGCCGGCTGC) | 0
TGGCCTGCATGGACCGGTTTTCCCGGTAATCCGTATTTGGC (site TGGCCTGCTGC) | 0
TGGCTAGCATGGACCGGTTTTCCCGGTAATCCGTATTTGAA (site TAGCTAGCTTT) | 0.00919
TGGCTAGCATGGACCGGTTTTCCCGGTAATCCGTATTTGAA (site TCGCTAGCTTT) | 0.0168
TGGCTAGCATGGACCGGTTTTCCCGGTAATCCGTATTTGAA (site TGGCTAGCTTT) | 1.06
TGGCTAGCATGGACCGGTTTTCCCGGTAATCCGTATTTGAA (site TTGCTAGCTTT) | 0.00374
TGGCTCTCATGGACCGGTTTTCCCGGTAATCCGTATTTGCA (site TGGCTCTCTTG) | 1.86
TGGGAACCATGGACCGGTTTTCCCGGTAATCCGTATTTGAT (site AGGGAACCTAT) | 0
TGGGAACCATGGACCGGTTTTCCCGGTAATCCGTATTTGAT (site CGGGAACCTAT) | 0.00502
TGGGAACCATGGACCGGTTTTCCCGGTAATCCGTATTTGAT (site GGGGAACCTAT) | 0
TGGGAACCATGGACCGGTTTTCCCGGTAATCCGTATTTGAT (site TGGGAACCTAT) | 0.00982
TGGTCCACATGGACCGGTTTTCCCGGTAATCCGTATTTGTC (site TGGTCCACTGA) | 0.323
TGGTCCCCATGGACCGGTTTTCCCGGTAATCCGTATTTGTA (site TGATCCCCTTA) | 0
TGGTCCCCATGGACCGGTTTTCCCGGTAATCCGTATTTGTA (site TGCTCCCCTTA) | 0.176
TGGTCCCCATGGACCGGTTTTCCCGGTAATCCGTATTTGTA (site TGGTCCCCTTA) | 0.0183
TGGTCCCCATGGACCGGTTTTCCCGGTAATCCGTATTTGTA (site TGTTCCCCTTA) | 0.00825
TGGTGCACATGGACCGGTTTTCCCGGTAATCCGTATTTGCC (site TGGTGCACTGG) | 1.75
TGGTTCCCATGGACCGGTTTTCCCGGTAATCCGTATTTGTG (site AGGTTCCCTCA) | 0.0205
TGGTTCCCATGGACCGGTTTTCCCGGTAATCCGTATTTGTG (site CGGTTCCCTCA) | 0.0117
TGGTTCCCATGGACCGGTTTTCCCGGTAATCCGTATTTGTG (site GGGTTCCCTCA) | 0.0263
TGGTTCCCATGGACCGGTTTTCCCGGTAATCCGTATTTGTG (site TGGTTCCCTCA) | 0.0117
